In PubChem BioAssay AID2060900 (Molecular Pharmacology Branch, DTP, NCI, 2025):

Tested on: 521955-158-R2-J5-PDC complex spheroids, viability
Test: Anticancer human tumor 521955-158-R2-J5-PDC patient-derived pancreatic carcinoma cell line growth inhibition [RAS]
Details: for viability, T/C: stronger effect = lower value
Method in brief: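 Tumour cells grown as complex spheroids with HUVEC endothelial cells and mesenchymal stem cells, treated with RAS pathway inhibitor combinations. Each agent spans half-log steps from near clinical Cmax, or 10 microM where Cmax is unknown.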

[1] = curve of first compound, second compound 0.00316 µM
[2] = curve of first compound, second compound 0.01 µM
[3] = curve of first compound, second compound 0.0316 µM
[4] = curve of first compound, second compound 0.1 µM
[5] = curve of first compound, second compound 0.316 µM
[6] = curve of first compound, second compound 1 µM
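Note: compound exposure lasted seven days before the viability read.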
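Throughout, for viability, T/C: spheroids also contain HUVEC endothelial cells and mesenchymal stem cells as stroma.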

## CC1(C)CCC(Nc2ncc(C(F)(F)F)c(-c3c[nH]c4c(P(C)(C)=O)c(C#N)ccc34)n2)CN1 (centres undefined) + C=CC(=O)N1CCN(c2nc(OCC3CCCN3C)nc3c(F)c(-c4nc(N)cc(C)c4C(F)(F)F)c(Cl)cc23)C(C)C1
[1]
  IC50: > 300 nM
[2]
  IC50: > 300 nM
[3]
  IC50: > 300 nM
[4]
  IC50: > 300 nM
[5]
  IC50: > 300 nM
[6]
  IC50: > 300 nM
Second compound 0.00316 µM, first compound 0.000949 µM
  viability, T/C: 80.7%
Second compound 0.00316 µM, first compound 0.003 µM
  viability, T/C: 73.7%
Second compound 0.00316 µM, first compound 0.00949 µM
  viability, T/C: 67.7%
Second compound 0.00316 µM, first compound 0.03 µM
  viability, T/C: 51.1%
Second compound 0.00316 µM, first compound 0.0949 µM
  viability, T/C: 49.5%
Second compound 0.00316 µM, first compound 0.3 µM
  viability, T/C: 53.3%
Second compound 0.01 µM, first compound 0.000949 µM
  viability, T/C: 81.2%
Second compound 0.01 µM, first compound 0.003 µM
  viability, T/C: 78.5%
Second compound 0.01 µM, first compound 0.00949 µM
  viability, T/C: 52.6%
Second compound 0.01 µM, first compound 0.03 µM
  viability, T/C: 53%
Second compound 0.01 µM, first compound 0.0949 µM
  viability, T/C: 58.3%
Second compound 0.01 µM, first compound 0.3 µM
  viability, T/C: 60.4%
Second compound 0.0316 µM, first compound 0.000949 µM
  viability, T/C: 75.4%
Second compound 0.0316 µM, first compound 0.003 µM
  viability, T/C: 78.7%
Second compound 0.0316 µM, first compound 0.00949 µM
  viability, T/C: 57.5%
Second compound 0.0316 µM, first compound 0.03 µM
  viability, T/C: 55.8%
Second compound 0.0316 µM, first compound 0.0949 µM
  viability, T/C: 73%
Second compound 0.0316 µM, first compound 0.3 µM
  viability, T/C: 53.8%
Second compound 0.1 µM, first compound 0.000949 µM
  viability, T/C: 90%
Second compound 0.1 µM, first compound 0.003 µM
  viability, T/C: 86.3%
Second compound 0.1 µM, first compound 0.00949 µM
  viability, T/C: 57.9%
Second compound 0.1 µM, first compound 0.03 µM
  viability, T/C: 64.2%
Second compound 0.1 µM, first compound 0.0949 µM
  viability, T/C: 65.8%
Second compound 0.1 µM, first compound 0.3 µM
  viability, T/C: 56.9%
Second compound 0.316 µM, first compound 0.000949 µM
  viability, T/C: 84.5%
Second compound 0.316 µM, first compound 0.003 µM
  viability, T/C: 76.5%
Second compound 0.316 µM, first compound 0.00949 µM
  viability, T/C: 51.3%
Second compound 0.316 µM, first compound 0.03 µM
  viability, T/C: 65.3%
Second compound 0.316 µM, first compound 0.0949 µM
  viability, T/C: 67%
Second compound 0.316 µM, first compound 0.3 µM
  viability, T/C: 49.2%
Second compound 1 µM, first compound 0.000949 µM
  viability, T/C: 106%
Second compound 1 µM, first compound 0.003 µM
  viability, T/C: 77.5%
Second compound 1 µM, first compound 0.00949 µM
  viability, T/C: 56.3%
Second compound 1 µM, first compound 0.03 µM
  viability, T/C: 51.9%
Second compound 1 µM, first compound 0.0949 µM
  viability, T/C: 63.9%
Second compound 1 µM, first compound 0.3 µM
  viability, T/C: 55.4%

## CC(=O)OC12COC1CC(O)C1(C)C(=O)C(O)C3=C(C)C(OC(=O)C(O)C(NC(=O)OC(C)(C)C)c4ccccc4)CC(O)(C(OC(=O)c4ccccc4)C21)C3(C)C (centres undefined) + C=CC(=O)N1CCN(c2nc(OCC3CCCN3C)nc3c(F)c(-c4nc(N)cc(C)c4C(F)(F)F)c(Cl)cc23)C(C)C1
[1]
  IC50: < 31.6 nM
[2]
  IC50: < 31.6 nM
[3]
  IC50: < 31.6 nM
[4]
  IC50: < 31.6 nM
[5]
  IC50: < 31.6 nM
[6]
  IC50: < 31.6 nM
Second compound 0.00316 µM, first compound 0.0316 µM
  viability, T/C: 37.3%
Second compound 0.00316 µM, first compound 0.1 µM
  viability, T/C: 34.1%
Second compound 0.00316 µM, first compound 0.316 µM
  viability, T/C: 24.9%
Second compound 0.00316 µM, first compound 1 µM
  viability, T/C: 29.8%
Second compound 0.00316 µM, first compound 3.16 µM
  viability, T/C: 40.8%
Second compound 0.00316 µM, first compound 10 µM
  viability, T/C: 64.4%
Second compound 0.01 µM, first compound 0.0316 µM
  viability, T/C: 38.5%
Second compound 0.01 µM, first compound 0.1 µM
  viability, T/C: 34.3%
Second compound 0.01 µM, first compound 0.316 µM
  viability, T/C: 21.5%
Second compound 0.01 µM, first compound 1 µM
  viability, T/C: 30.6%
Second compound 0.01 µM, first compound 3.16 µM
  viability, T/C: 41.4%
Second compound 0.01 µM, first compound 10 µM
  viability, T/C: 52.6%
Second compound 0.0316 µM, first compound 0.0316 µM
  viability, T/C: 39.7%
Second compound 0.0316 µM, first compound 0.1 µM
  viability, T/C: 40.6%
Second compound 0.0316 µM, first compound 0.316 µM
  viability, T/C: 28.2%
Second compound 0.0316 µM, first compound 1 µM
  viability, T/C: 29.7%
Second compound 0.0316 µM, first compound 3.16 µM
  viability, T/C: 44.9%
Second compound 0.0316 µM, first compound 10 µM
  viability, T/C: 44.9%
Second compound 0.1 µM, first compound 0.0316 µM
  viability, T/C: 34.3%
Second compound 0.1 µM, first compound 0.1 µM
  viability, T/C: 31.5%
Second compound 0.1 µM, first compound 0.316 µM
  viability, T/C: 33.1%
Second compound 0.1 µM, first compound 1 µM
  viability, T/C: 25.6%
Second compound 0.1 µM, first compound 3.16 µM
  viability, T/C: 35.8%
Second compound 0.1 µM, first compound 10 µM
  viability, T/C: 59.3%
Second compound 0.316 µM, first compound 0.0316 µM
  viability, T/C: 38.4%
Second compound 0.316 µM, first compound 0.1 µM
  viability, T/C: 33.9%
Second compound 0.316 µM, first compound 0.316 µM
  viability, T/C: 21.7%
Second compound 0.316 µM, first compound 1 µM
  viability, T/C: 34.6%
Second compound 0.316 µM, first compound 3.16 µM
  viability, T/C: 46.1%
Second compound 0.316 µM, first compound 10 µM
  viability, T/C: 51.9%
Second compound 1 µM, first compound 0.0316 µM
  viability, T/C: 31.8%
Second compound 1 µM, first compound 0.1 µM
  viability, T/C: 32.3%
Second compound 1 µM, first compound 0.316 µM
  viability, T/C: 19.1%
Second compound 1 µM, first compound 1 µM
  viability, T/C: 22%
Second compound 1 µM, first compound 3.16 µM
  viability, T/C: 46.3%
Second compound 1 µM, first compound 10 µM
  viability, T/C: 55.5%

## CCn1c(-c2cccnc2C(C)OC)c2c3cc(ccc31)N1CCOC(CC(NC(=O)C(C(C)C)N(C)C(=O)C3(F)CCN(C(=O)C#CC(C)(C)N(C)C)CC3)C(=O)N3CCCC(N3)C(=O)OCC(C)(C)C2)C1 (centres undefined)
Compound 0.000949 µM
  viability, T/C: 101% [middle of 8 runs]
Compound 0.003 µM
  viability, T/C: 101% [middle of 8 runs]
Compound 0.03 µM
  viability, T/C: 94.8% [middle of 8 runs]
Compound 0.3 µM
  viability, T/C: 77.3% [middle of 8 runs]
Compound alone, run of 05/20/2024
  IC50: > 300 nM
